Reference: patent US20030181436A1, “Treatment for AIDS, HIV, and other related diseases and compounds for use therewith” (priority 2001, published 2003)

How the values were obtained:
Format in all cases: cell-based
U1 cells = assay: U1 assay, compound toxicity by MTS dye reduction; set-up: TC50: unit not given here
Procedure: At assay termination the assay plates were stained with the soluble tetrazolium-based dye MTS (CellTiter® Reagent, Promega) to determined cell viability and quantify compound toxicity. […] At termination of the assay 20 μL of MTS reagent was added per well. The wells were incubated for 4 h at 37° C., 5% CO2. Adhesive plate scalers were used in place of the lids, the sealed plate was inverted several times to mix the soluble formazan product and the plate was read spectrophotometrically at 490 nm with a 650 nm reference wavelength on a Molecular Devices Vmax plate reader.
(§1) U1 and ACH-2 cells were obtained from the AIDS Research and Reference Reagent Program and maintained under standard culture conditions in RPMI 1640 supplemented with 10% fetal bovine serum (heat inactivated), supplemented with 2 mM […], 100U/ml penicillin and 100 μg/ml, streptomycin. U1 cells were derived from the histocytic leukemia cell line U937, and contain a single integrated copy (HIV IIIB) […] a cytokine and/or phorbol inducible provirus. ACH-2 cells are derived from the A3.01 T lymphoblastic cell line, and contain 2 copies of the HIV IIIB provirus, however only one is cytokine and/or phorbol inducible. Cultures were maintained in such a way as to ensure exponential growth of the populations. At the time of the assay, cells were collected by centrifugation and counted by hemacytometer. If cell viability by Trypan Blue dye exclusion was less than 70% the assay was terminated. The cells were adjusted to 5×10^4 cells/mL and 100 μL, placed in 96 well plates with 100 μL media containing a final concentration of […] TNFα and the test compound. Cultures were incubated for 3 days and supernatants harvested. Compound toxicity was determined by MTS dye reduction. Virus expression was measured by supernatant reverse transcriptasc activity.

[1] = tested on: TNFα induced ACH-2 cells (HIV IIIB provirus); assay: ACH-2 latent infection assay, supernatant reverse transcriptase activity
Procedure: as §1
(§2) Reverse transcriptase activity was measured in cell-free supernatants. Tritiated thymidine triphosphate (NEN) (TTP) was resuspended in distilled H2O at 5 Ci/mL. Poly rA and oligo dT were prepared as a stock solution which was kept at −20° C. The RT reaction buffer was prepared fresh on a daily basis and consists of 125 μL 1.0 M EGTA, 125 μL dH2O, 110 μL 10% SDS, 50 μL 1.0 M Tris (pH 7.4), 50 μL, 1.0 M DTT, and 40 μL 1.0 M MgCl2. These three solutions were mixed together in a ratio of 2 parts TTP, 1 part poly rA:oligo dT, and 1 part reaction buffer. Ten microliters of this reaction mixture was placed in a round bottom microtiter plate and 15 μL of virus containing supernatant was added and mixed. The plate was incubated at 37° C. in a water bath with a solid support to prevent submersion of the plate and incubated for 60 minutes. Following reaction, the reaction volume was spotted onto pieces of DE81 paper, washed 5 times for 5 minutes each in a 5% sodium phosphate buffer, 2 times for 1 minute each in distilled water, 2 times for 1 minute each in 70% ethanol, and then dried. Opti-Fluor O was added to each sample and incorporated radioactivity was quantitated utilizing a Wallac 1450 Microbetaplus liquid scintillation counter.

[2] = tested on: TNFα induced U1 cells (HIV IIIB provirus); assay: U1 latent infection assay, supernatant reverse transcriptase activity; conditions: for % VC / RT ACTIVITY (cpm) MEAN: exp 2; for RT VALUES (cpm) MEAN / X VC: exp 1
Procedure: as §1, §2

Zinc Iodiscorbate [Compound Z]
TOXICITY VALUES MEAN (U1 cells; 0.00063 ug/ml, exp 2): 1.055 O. D. | % CC (U1 cells; 0.002 ug/ml, exp 2): 90.5% | TOXICITY VALUES MEAN (U1 cells; 0.002 ug/ml, exp 2): 0.963 O. D. | TOXICITY VALUES MEAN (U1 cells; 0.00625 ug/ml, exp 2): 1.103 O. D. | TOXICITY VALUES MEAN (U1 cells; 0.02 ug/ml, exp 2): 1.064 O. D. | TOXICITY VALUES MEAN (U1 cells; 0.0625 ug/ml, exp 2): 1.072 O. D. | TOXICITY VALUES MEAN (U1 cells; 0.2 ug/ml, exp 2): 1.031 O. D. | TOXICITY VALUES (MTS) MEAN (U1 cells; 0.625 ug/ml, exp 1): 1.791 O. D. | % CC (U1 cells; 0.625 ug/ml, exp 2): 81.6% | TOXICITY VALUES MEAN (U1 cells; 0.625 ug/ml, exp 2): 0.868 O. D. | TOXICITY VALUES (MTS) MEAN (U1 cells; 2 ug/ml, exp 1): 1.732 O. D. | % CC (U1 cells; 2 ug/ml, exp 2): 82.3% | TOXICITY VALUES MEAN (U1 cells; 2 ug/ml, exp 2): 0.876 O. D. | % CC (U1 cells; 6.25 ug/ml [c2], exp 2): 35.3% | TOXICITY VALUES MEAN (U1 cells; 6.25 ug/ml [c2], exp 2): 0.376 O. D. | TOXICITY VALUES MEAN (U1 cells; 6.25 ug/ml [c4], exp 2): 1.118 O. D. | TOXICITY VALUES (MTS) MEAN (U1 cells; 6.25 ug/ml, exp 1): 1.649 O. D. | % CC (U1 cells; 20 ug/ml, exp 1): 91.7% | TOXICITY VALUES (MTS) MEAN (U1 cells; 20 ug/ml, exp 1): 1.625 O. D. | % CC (U1 cells; 20 ug/ml, exp 2): 61.7% | TOXICITY VALUES MEAN (U1 cells; 20 ug/ml, exp 2): 0.658 O. D. | % CC (U1 cells; 62.5 ug/ml, exp 1): 77.8% | TOXICITY VALUES (MTS) MEAN (U1 cells; 62.5 ug/ml, exp 1): 1.379 O. D. | % CC (U1 cells; 200 ug/ml, exp 1): 3.6% | TOXICITY VALUES (MTS) MEAN (U1 cells; 200 ug/ml, exp 1): 0.063 O. D. | % CC (U1 cells; 200 ug/ml, exp 2): 7.1% | TOXICITY VALUES MEAN (U1 cells; 200 ug/ml, exp 2): 0.076 O. D. | TC50 (U1 cells; U1, experiment 1, Table 1): 114 | TC50 (U1 cells; U1, experiment 2, Table 1): 39 | U1 TC50 (U1 cells; exp 2): 38.8 µg/mL | U1 TC50 (U1 cells; exp 2, listed as COMPOUND Z): TC50 (uglml) = 38.80 μg/ml | activity in the ACH-2 assay [1]: inactive | % VC ([1]; 0.00063 μg/ml, exp 2): 96.4% | RT ACTIVITY MEAN ([1]; 0.00063 μg/ml, exp 2): 18594 cpm | % VC ([1]; 0.002 μg/ml, exp 2): 106.4% | RT ACTIVITY MEAN ([1]; 0.002 μg/ml, exp 2): 20516 cpm | % VC ([1]; 0.00625 μg/ml, exp 2): 100.6% | RT ACTIVITY MEAN ([1]; 0.00625 μg/ml, exp 2): 19411 cpm | % VC ([1]; 0.02 μg/ml, exp 2): 116.0% | RT ACTIVITY MEAN ([1]; 0.02 μg/ml, exp 2): 22382 cpm | % VC ([1]; 0.0625 μg/ml, exp 2): 111.6% | RT ACTIVITY MEAN ([1]; 0.0625 μg/ml, exp 2): 21532 cpm | % VC ([1]; 0.2 μg/ml, exp 2): 114.0% | RT ACTIVITY MEAN ([1]; 0.2 μg/ml, exp 2): 21983 cpm | % VC ([1]; 0.625 μg/ml, exp 2): 104.2% | RT ACTIVITY MEAN ([1]; 0.625 μg/ml, exp 2): 20108 cpm | % VC ([1]; 2 μg/ml, exp 2): 104.5% | RT ACTIVITY MEAN ([1]; 2 μg/ml, exp 2): 20151 cpm | % VC ([1]; 6.25 μg/ml, exp 2): 60.8% | RT ACTIVITY MEAN ([1]; 6.25 μg/ml, exp 2): 11729 cpm | % VC ([1]; 20 μg/ml, exp 2): 5.1% | RT ACTIVITY MEAN ([1]; 20 μg/ml, exp 2): 982 cpm | % VC ([1]; 62.5 μg/ml, exp 2): 0.83% | RT ACTIVITY MEAN ([1]; 62.5 μg/ml, exp 2): 160 cpm | % VC ([1]; 200 μg/ml, exp 2): 0.41% | RT ACTIVITY MEAN ([1]; 200 μg/ml, exp 2): 80 cpm | % VC ([1]; 0.00063 μG/Ml, exp 1): 107.6% | RT ACTIVITY (cpm) MEAN ([1]; 0.00063 μG/Ml, exp 1): 71887 cpm | % VC ([1]; 0.002 μG/Ml [c9], exp 1): 107.8% | RT ACTIVITY (cpm) MEAN ([1]; 0.002 μG/Ml [c9], exp 1): 71981 cpm | % VC ([1]; 0.002 μG/Ml [c11], exp 1): 107.5% | RT ACTIVITY (cpm) MEAN ([1]; 0.002 μG/Ml [c11], exp 1): 71843 cpm | % VC ([1]; 0.00625 μG/Ml, exp 1): 93.3% | RT ACTIVITY (cpm) MEAN ([1]; 0.00625 μG/Ml, exp 1): 62338 cpm | % VC ([1]; 0.0625 μG/Ml, exp 1): 123.3% | RT ACTIVITY (cpm) MEAN ([1]; 0.0625 μG/Ml, exp 1): 82351 cpm | % VC ([1]; 0.2 μG/Ml, exp 1): 116.0% | RT ACTIVITY (cpm) MEAN ([1]; 0.2 μG/Ml, exp 1): 77521 cpm | % VC ([1]; 0.625 μG/Ml, exp 1): 118.9% | RT ACTIVITY (cpm) MEAN ([1]; 0.625 μG/Ml, exp 1): 79421 cpm | % VC ([1]; 2 μG/Ml, exp 1): 114.0% | RT ACTIVITY (cpm) MEAN ([1]; 2 μG/Ml, exp 1): 76125 cpm | % VC ([1]; 6.25 μG/Ml, exp 1): 112.7% | RT ACTIVITY (cpm) MEAN ([1]; 6.25 μG/Ml, exp 1): 75319 cpm | % VC ([1]; 20 μG/Ml, exp 1): 107.9% | RT ACTIVITY (cpm) MEAN ([1]; 20 μG/Ml, exp 1): 72063 cpm | % VC ([1]; 62.5 μG/Ml, exp 1): 3.27% | RT ACTIVITY (cpm) MEAN ([1]; 62.5 μG/Ml, exp 1): 2186 cpm | % VC ([1]; 200 μG/Ml, exp 1): 2.23% | RT ACTIVITY (cpm) MEAN ([1]; 200 μG/Ml, exp 1): 1487 cpm | IC50 ([1]; ACH2, exp 1, Table 2): IC50 (μG/Ml) = 43.51 | IC50 ([1]; ACH-2, experiment 1, Table 1): 43.5 µg/mL | IC50 ([1]; ACH-2, experiment 2, Table 1): 8.9 µg/mL | ACH2 EC50 ([1]; exp 2, Table 4): 8.9 µg/mL | activity in the U1 assay [2]: inactive | % VC ([2]; 0.00063 ug/ml): 110.1% | % VC ([2]; 0.002 ug/ml): 105.4% | RT ACTIVITY (cpm) MEAN ([2]; 0.002 ug/ml): 3245 cpm | % VC ([2]; 0.00625 ug/ml): 99.9% | RT ACTIVITY (cpm) MEAN ([2]; 0.00625 ug/ml): 3077 cpm | % VC ([2]; 0.02 ug/ml): 94.2% | RT ACTIVITY (cpm) MEAN ([2]; 0.02 ug/ml): 2902 cpm | % VC ([2]; 0.0625 ug/ml): 93.9% | RT ACTIVITY (cpm) MEAN ([2]; 0.0625 ug/ml): 2891 cpm | % VC ([2]; 0.2 ug/ml): 101.2% | RT ACTIVITY (cpm) MEAN ([2]; 0.2 ug/ml): 3115 cpm | RT VALUES (cpm) MEAN ([2]; 0.625 ug/ml): 2504.7 cpm | X VC ([2]; 0.625 ug/ml): 106.3 | % VC ([2]; 0.625 ug/ml): 64.4% | RT ACTIVITY (cpm) MEAN ([2]; 0.625 ug/ml): 1984 cpm | RT VALUES (cpm) MEAN ([2]; 2 ug/ml): 2492.7 cpm | X VC ([2]; 2 ug/ml): 105.8 | % VC ([2]; 2 ug/ml): 59.7% | RT ACTIVITY (cpm) MEAN ([2]; 2 ug/ml): 1838 cpm | RT VALUES (cpm) MEAN ([2]; 6.25 ug/ml): 2813.0 cpm | X VC ([2]; 6.25 ug/ml): 119.4 | % VC ([2]; 6.25 ug/ml): 66.9% | RT ACTIVITY (cpm) MEAN ([2]; 6.25 ug/ml): 2059 cpm | RT VALUES (cpm) MEAN ([2]; 20 ug/ml): 2385.7 cpm | X VC ([2]; 20 ug/ml): 101.2 | % VC ([2]; 20 ug/ml): 63.2% | RT ACTIVITY (cpm) MEAN ([2]; 20 ug/ml): 1947 cpm | RT VALUES (cpm) MEAN ([2]; 62.5 ug/ml): 2253.7 cpm | X VC ([2]; 62.5 ug/ml): 95.6 | % VC ([2]; 62.5 ug/ml): 39.78% | RT ACTIVITY (cpm) MEAN ([2]; 62.5 ug/ml): 1225 cpm | RT VALUES (cpm) MEAN ([2]; 200 ug/ml): 802.7 cpm | X VC ([2]; 200 ug/ml): 34.1 | % VC ([2]; 200 ug/ml): 30.84% | RT ACTIVITY (cpm) MEAN ([2]; 200 ug/ml): 950 cpm | IC50 ([2]; U1, exp 2, Table 8): IC50 (uglml) = 43.99 | IC50 ([2]; U1, experiment 1, Table 1): 164 µg/mL | IC50 ([2]; U1, experiment 2, Table 1): 44 µg/mL | IC50 ([2]; U1/TNFα, exp 1, Table 3): IC50 (ug/ml) = ..164.40 | U1 EC50 ([2]; exp 2, Table 4): 44.0 µg/mL
